Source: ChEMBL document CHEMBL5154891, “Discovery of AZD4625, a Covalent Allosteric Inhibitor of the Mutant GTPase KRASG12C” (J Med Chem, 2022)
Activity calls are given as the source filed them. No cut-off for these calls is given here.

What was measured:
[1] = in vitro; details: human, liver microsomes, CLH
[2] = Bioavailability in Han Wistar rat at 2 micromol/kg, po and 1 umol/kg, iv; format: ADME, organism-based; details: in vivo; for bioavailability: Han Wistar, 2 µmol/kg
[3] = Metabolic stability in human Hepatocyte assessed as intrinsic clearance measured per 10^6 cells; format: ADME, cell-based; details: hepatocytes, read-out: CLH
[4] = molecular target: GTPase KRas (Homo sapiens, UniProt P01116, G12C); experiment: Inhibition of C-terminal Avi and 6His-tagged human KRAS 2B G12C mutant (1 to 166 residues) expressed in Escherichia coli BL21 (DE3) assessed as inhibition of SOS mediated nucleotide exchange preincubated for 4 hrs followed by SOS1 addition by HTRF assay
[5] = Drug metabolism in human hepatocyte assessed as oxidative metabolism; format: ADME, cell-based; details: hepatocytes, 1 h, time 60 min
[6] = Metabolic stability in rat hepatocytes assessed as intrinsic clearance per 10^6 cells at 5 uM measured after 60 mins by UHPLC/UV/MS/MS; format: ADME, cell-based, Hepatocyte; details: for hepatocyte CLint at 5 µM: read-out: CLH
[7] = Lipophilicity, log D of the compound at pH 7.4; details: buffer, pH 7.4, logD
[8] = Inhibition of spheroid proliferation in human NCI-H358 cells harboring KRAS G12C mutant measured after 6 days by CellTiter-Glo assay; format: functional, cell-based; details: NCI-H358, 144 h
[9] = tested on: A549; experiment: Inhibition of spheroid proliferation in human A549 cells […] measured after 6 days by CellTiter-Glo assay; format: functional, cell-based; details: A549, 144 h
[10] = tested on: MIA PaCa-2; experiment: Antitumor activity against human MIA PaCa-2 cells harbouring KRAS G12C mutant xenografted in athymic nude Foxn1 nu mouse assessed as tumor regression at 100 mg/kg, po administered daily for 21 days and measured twice weekly by caliper analysis; format: functional, organism-based; details: time 21.0 day
[11] = Hepatic blood flow in CD-1 mouse; format: ADME
[12] = Hepatic blood flow in Wistar Han rat; format: ADME
[13] = molecular target: Ribosomal protein S6 kinase alpha-1 (Homo sapiens, UniProt Q15418, G12C); experiment: Inhibition of p90RSK phosphorylation in human NCI-H358 cells harboring KRAS G12C mutant measured for 2 hrs by immunofluorescence assay; format: cell-based
[14] = Hepatic blood flow in Beagle dog; format: ADME, Canis lupus familiaris
[15] = molecular target: T1, Ribosomal protein S6 kinase alpha-1 (Homo sapiens, UniProt Q15418); experiment: Inhibition of p90RSK phosphorylation in human Calu-6 cells harboring KRAS Q61K measured for 2 hrs by immunofluorescence assay; format: cell-based
[16] = Toxicity in athymic nude-Foxn1nu mouse xenografted with human MIA PaCa-2 cells assessed as tolerability at 4 to 100 mg/kg, po administered for 21 days; format: organism-based; details: in vivo, 504 h, dose 4-100 mg/kg, time 21 day
[17] = molecular target: Elongation factor 2 (Homo sapiens) (UniProt P13639); experiment: Binding affinity to EEF2 in human […] cell lysate assessed as trypsin-mediated biotinylated cysteine residues digestion by measuring reduction in protein level at 4 uM pretreated for 2 hrs followed by labelled with iodoacetamide-desthiobiotin by MS analysis relative to control; format: subcellular; details: NCI-H358
[18] = molecular target: T1, Ribosomal protein S6 kinase alpha-1; experiment: Inhibition of p90RSK phosphorylation in human PC-9 cells measured for 2 hrs by immunofluorescence assay; format: cell-based
[19] = molecular target: T2, Oxidation resistance protein 1 (Homo sapiens) (UniProt Q8N573); experiment: Binding affinity to OXR1 in human […] cell lysate assessed as trypsin-mediated biotinylated cysteine residues digestion by measuring reduction in protein level at 4 uM pretreated for 2 hrs followed by labelled with iodoacetamide-desthiobiotin by MS analysis relative to control; format: subcellular; details: NCI-H358
T2 sequence (whole entry): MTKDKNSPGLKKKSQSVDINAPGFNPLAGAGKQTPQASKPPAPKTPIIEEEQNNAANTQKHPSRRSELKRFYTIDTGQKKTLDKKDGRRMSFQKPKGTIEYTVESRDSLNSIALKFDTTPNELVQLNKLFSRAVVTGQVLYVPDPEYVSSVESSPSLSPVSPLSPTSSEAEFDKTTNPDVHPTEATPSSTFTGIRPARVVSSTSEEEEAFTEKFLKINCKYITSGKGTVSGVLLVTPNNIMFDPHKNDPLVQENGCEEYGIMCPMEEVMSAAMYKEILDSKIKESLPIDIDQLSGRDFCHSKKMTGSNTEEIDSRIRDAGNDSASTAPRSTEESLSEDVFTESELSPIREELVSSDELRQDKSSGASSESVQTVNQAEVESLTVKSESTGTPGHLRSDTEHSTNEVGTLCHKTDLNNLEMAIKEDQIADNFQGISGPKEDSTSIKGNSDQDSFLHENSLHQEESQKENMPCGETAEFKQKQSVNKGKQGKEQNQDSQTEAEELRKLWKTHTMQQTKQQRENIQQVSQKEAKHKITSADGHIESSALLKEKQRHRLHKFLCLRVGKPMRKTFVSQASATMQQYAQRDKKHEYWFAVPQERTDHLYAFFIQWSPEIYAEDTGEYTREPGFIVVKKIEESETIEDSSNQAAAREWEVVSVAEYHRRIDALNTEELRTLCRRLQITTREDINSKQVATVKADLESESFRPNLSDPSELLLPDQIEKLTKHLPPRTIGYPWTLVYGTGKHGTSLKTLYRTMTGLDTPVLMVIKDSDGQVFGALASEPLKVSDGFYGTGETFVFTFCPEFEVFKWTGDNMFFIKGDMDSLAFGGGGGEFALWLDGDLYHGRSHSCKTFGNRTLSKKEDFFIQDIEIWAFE

[20] = tested on: Mus musculus; experiment: In vivo inhibition of RAS/MAPK pathway in human MIA PaCa-2 cells harbouring KRAS G12C mutant xenografted in athymic nude Foxn1 nu mouse assessed as reduction in DUSP6 expression measured at 3 to 6 hrs post dose; format: functional; details: dose 4-100 mg/kg, time 3-6 hrs, DDE = dose-dependent effect
[21] = Stability in rat whole blood; format: ADME, tissue-based
[22] = Stability in dog whole blood; format: ADME, tissue-based, Canis lupus familiaris
[23] = Stability in mouse whole blood; format: ADME, tissue-based
[24] = Stability in monkey whole blood; format: ADME, tissue-based, Macaca mulatta; details: rhesus monkey

Row | Structure (SMILES) | microsomal CLint at 1 h, 5 µM [1] [µL/min/mg] | bioavailability [2] [%] | IC50 [4] [nM] | hepatocyte CLint at 5 µM [6] [µL/min/1e6 cells] | logD [7] | also measured
1 | C=CC(=O)N1CCN2c3ncnc4cc(-c5c(C)ccc6[nH]ncc56)c(Cl)c(c34)OCC[C@H]2C1 (single isomer, unassigned; atropisomer 2) | 189 | 16 | 9 | 46 | 3.4 | hepatocyte CLint [3]: 20 µL/min/1e6 cells; Drug metabolism [5]: Metabolite_Detected
2 | C=CC(=O)N1CCN2c3ncnc4cc(-c5c(C)ccc6[nH]ncc56)c(Cl)c(c34)OC[C@@H]2C1 (atropisomer aS) | 58 |  |  | 109 |  | 
3 | C=CC(=O)N1C[C@H]2COc3c(Cl)c(-c4c(O)cccc4F)c(F)c4ncnc(c34)N2C[C@H]1C (stereo in doubt; 30) | 24 | 28 | 117 | 64 | 3.2 | 
4 | C=CC(=O)N1CCN2c3ncnc4c(F)c(-c5c(O)cccc5F)c(Cl)c(c34)OCC[C@H]2C1 | 66 | 36 | < 5 | 99 | 2.7 | hepatocyte CLint [3]: 12 µL/min/1e6 cells
5 | C=CC(=O)N1CCN(c2ncnc3cc(-c4c(C)ccc5[nH]ncc45)c(Cl)cc23)CC1 | 38 |  |  | 56 | 3.5 | 
6 | C=CC(=O)N1CCN2c3ncnc4cc(-c5c(C)ccc6[nH]ncc56)c(Cl)c(c34)OC[C@H]2C1 (atropisomer aR) |  |  | 171 |  |  | 
7 | C=CC(=O)N1CCN2c3ncnc4cc(-c5c(C)ccc6[nH]ncc56)c(Cl)c(c34)OCC[C@@H]2C1 (single isomer, unassigned; atropisomer 1) | 192 |  | 15500 | 50 | 3.4 | 
8 | C=CC(=O)N1C[C@H]2COc3c(Cl)c(-c4c(O)cccc4F)c(F)c4ncnc(c34)N2C[C@H]1C (stereo in doubt; 32) |  |  | 64 |  |  | F ([2]; po, at 2 µmol/kg): 31%; CLint_hep ([6]; 1 h, 5 µM): 43 uL/min/1e6 cells; GI50 ([8]; time 6 day): 284 nM
9 | C=CC(=O)N1CCN2c3ncnc4cc(-c5c(C)ccc6[nH]ncc56)c(Cl)c(c34)OC[C@@H]2C1 (single isomer, unassigned; atropisomer 2) |  |  | 27100 |  |  | 
10 | C=CC(=O)N1C[C@@H]2CCOc3c(Cl)c(-c4c(O)cccc4F)c(F)c4ncnc(c34)N2C[C@H]1C | 28 | 75 | 3 | 40 | 3.2 | IC50 [9]: 1670 nM; Activity [10]: Active; QH [11]: 152 mL/min/kg; QH [12]: 72 mL/min/kg; IC50 [13]: 36 nM; QH [14]: 55 mL/min/kg; hepatocyte CLint [3]: < 2 µL/min/1e6 cells; IC50 [15]: > 30000 nM; Activity [16]: Non-Toxic; Activity [17]: Active; IC50 [18]: 4950 nM; Activity [19]: Active; Activity [20]: Dde; IC50 [8]: 4.1 nM
11 | C=CC(=O)N1CCN2c3ncnc4c(F)c(-c5c(O)cccc5F)c(Cl)c(c34)OC[C@@H]2C1 | 13 | 0 | 19 | 79 | 2.9 | Stability [21]: Unstable; Stability [22]: Unstable; Stability [23]: Unstable; Stability [24]: Unstable
12 | C=CC(=O)N1C[C@@H]2CCOc3c(Cl)c(-c4c(O)cccc4F)c(F)c4ncnc(c34)N2C[C@@H]1C | 203 | 51 | 138 | 143 | 3.2 | 
13 | C=CC(=O)N1C[C@H]2COc3c(Cl)c(-c4c(O)cccc4F)c(F)c4ncnc(c34)N2C[C@@H]1C | 110 | 31 | 135 | 238 | 3.4 | 
14 | C=CC(=O)N1CCN2c3ncnc4cc(-c5c(C)ccc6[nH]ncc56)c(Cl)c(c34)OC[C@H]2C1 (single isomer, unassigned; atropisomer 2) |  |  | 17800 |  |  | 
